Values after ≈ are worked out from the molar mass of the structure shown.
Tested on: Mycobacterium tuberculosis
Test: Antimycobacterial activity against Mycobacterium tuberculosis H37Rv
Type: functional

Row | Compound | MIC [µg/mL]
1 | Fc1ccc2[nH]c3c(c2c1)SC(c1ccccc1)C3 (stereo unspecified) | 6.25 (≈ 23.2 µM)
2 | Clc1ccc2[nH]c3c(c2c1)SC(c1ccccc1)C3 (stereo unspecified) | 12.5 (≈ 43.7 µM)
3 | Fc1cccc(C2Cc3[nH]c4ccccc4c3S2)c1 (stereo unspecified) | 3.13 (≈ 11.6 µM)
4 | Clc1ccc(C2Cc3[nH]c4ccc(Cl)cc4c3S2)cc1 (stereo unspecified) | 12.5 (≈ 39 µM)
5 | Fc1ccc2[nH]c3c(c2c1)SC(c1ccc(Cl)cc1)C3 (stereo unspecified) | 1.56 (≈ 5.14 µM)
6 | Cc1ccc(C2Cc3[nH]c4ccc(F)cc4c3S2)cc1 (stereo unspecified) | 3.13 (≈ 11 µM)
7 | c1ccc(C2Cc3[nH]c4ccccc4c3S2)cc1 (stereo unspecified) | 25 (≈ 99.5 µM)
8 | Clc1ccc2[nH]c3c(c2c1)SC(c1ccccc1Cl)C3 (stereo unspecified) | 3.13 (≈ 9.77 µM)
9 | CC(C)c1ccc(C2Cc3[nH]c4ccc(Cl)cc4c3S2)cc1 (stereo unspecified) | 0.78 (≈ 2.38 µM)
10 | Fc1ccc2[nH]c3c(c2c1)SC(c1ccccc1Cl)C3 (stereo unspecified) | 1.76 (≈ 5.79 µM)
11 | CC(C)c1ccc(C2Cc3[nH]c4ccc(F)cc4c3S2)cc1 (stereo unspecified) | 0.78 (≈ 2.5 µM)
12 | Clc1ccc(C2Cc3[nH]c4ccccc4c3S2)c(Cl)c1 (stereo unspecified) | 1.76 (≈ 5.5 µM)
13 | Fc1ccc(C2Cc3[nH]c4ccc(Cl)cc4c3S2)cc1 (stereo unspecified) | 3.13 (≈ 10.3 µM)
14 | Cc1ccc(C2Cc3[nH]c4ccccc4c3S2)cc1 (stereo unspecified) | 6.25 (≈ 23.6 µM)
15 | Clc1ccccc1C1Cc2[nH]c3ccccc3c2S1 (stereo unspecified) | 6.25 (≈ 21.9 µM)
16 | Brc1ccccc1C1Cc2[nH]c3ccccc3c2S1 (stereo unspecified) | 3.13 (≈ 9.48 µM)
17 | Clc1ccc(C2Cc3[nH]c4ccc(Cl)cc4c3S2)c(Cl)c1 (stereo unspecified) | 0.78 (≈ 2.2 µM)
18 | Cc1ccc(C2Cc3[nH]c4ccc(Cl)cc4c3S2)cc1 (stereo unspecified) | 6.25 (≈ 20.8 µM)
19 | Clc1ccc(C2Cc3[nH]c4ccccc4c3S2)cc1 (stereo unspecified) | 12.5 (≈ 43.7 µM)
20 | O=[N+]([O-])c1cccc(C2Cc3[nH]c4ccccc4c3S2)c1 (stereo unspecified) | 1.76 (≈ 5.94 µM)
21 | CC(C)c1ccc(C2Cc3[nH]c4ccccc4c3S2)cc1 (stereo unspecified) | 0.78 (≈ 2.66 µM)
22 | Fc1ccc2[nH]c3c(c2c1)SC(c1ccc(Cl)cc1Cl)C3 (stereo unspecified) | 0.4 (≈ 1.18 µM)
23 | CC[C@@H](CO)NCCN[C@@H](CC)CO [ETHAMBUTOL] | 1.56 (≈ 7.64 µM)
24 | NNC(=O)c1ccncc1 [ISONIAZID] | 0.05 (≈ 0.365 µM)
25 | NC(=O)c1cnccn1 [PYRAZINAMIDE] | 6.25 (≈ 50.8 µM)
26 | CO[C@H]1/C=C/O[C@@]2(C)Oc3c(C)c(O)c4c(O)c(c(/C=N/N5CCN(C)CC5)c(O)c4c3C2=O)NC(=O)/C(C)=C\C=C\[C@H](C)[C@H](O)[C@@H](C)[C@@H](O)[C@@H](C)[C@H](OC(C)=O)[C@@H]1C [RIFAMPIN] | 0.1 (≈ 0.122 µM)

From ChEMBL document CHEMBL1151911, “A microwave-assisted facile regioselective Fischer indole synthesis and antitubercular evaluation of novel 2-aryl-3,4-dihydro-2H-thieno[3,2-b]indoles” (2009)
